Key:
[1] = biological target: Calcium/calmodulin-dependent protein kinase type 1 (Homo sapiens) (UniProt Q14012); test: Percentage CaMK1 activity remaining in the presence of 0.01uM inhibitor
[2] = biological target: T1, Serine/threonine-protein kinase Sgk1 (Homo sapiens) (UniProt O00141); test: Percentage SGK1 activity remaining in the presence of 0.01uM inhibitor
T1 sequence (whole entry): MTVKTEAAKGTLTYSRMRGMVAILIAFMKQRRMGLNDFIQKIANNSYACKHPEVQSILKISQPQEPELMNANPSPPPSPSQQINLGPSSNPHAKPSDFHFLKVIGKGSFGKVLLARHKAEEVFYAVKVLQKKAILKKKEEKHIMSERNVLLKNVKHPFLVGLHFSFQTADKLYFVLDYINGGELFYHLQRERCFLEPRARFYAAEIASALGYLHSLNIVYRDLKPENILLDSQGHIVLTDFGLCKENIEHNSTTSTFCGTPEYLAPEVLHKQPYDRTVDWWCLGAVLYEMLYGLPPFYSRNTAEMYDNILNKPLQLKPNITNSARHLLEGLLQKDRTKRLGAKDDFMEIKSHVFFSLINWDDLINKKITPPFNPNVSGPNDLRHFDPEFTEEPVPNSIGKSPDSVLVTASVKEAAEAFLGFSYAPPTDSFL

[3] = biological target: T2, Ribosomal protein S6 kinase beta-1 (Homo sapiens, UniProt P23443); test: Percentage S6K1 activity remaining in the presence of 0.01uM inhibitor
T2 sequence (P23443 whole entry, looked up): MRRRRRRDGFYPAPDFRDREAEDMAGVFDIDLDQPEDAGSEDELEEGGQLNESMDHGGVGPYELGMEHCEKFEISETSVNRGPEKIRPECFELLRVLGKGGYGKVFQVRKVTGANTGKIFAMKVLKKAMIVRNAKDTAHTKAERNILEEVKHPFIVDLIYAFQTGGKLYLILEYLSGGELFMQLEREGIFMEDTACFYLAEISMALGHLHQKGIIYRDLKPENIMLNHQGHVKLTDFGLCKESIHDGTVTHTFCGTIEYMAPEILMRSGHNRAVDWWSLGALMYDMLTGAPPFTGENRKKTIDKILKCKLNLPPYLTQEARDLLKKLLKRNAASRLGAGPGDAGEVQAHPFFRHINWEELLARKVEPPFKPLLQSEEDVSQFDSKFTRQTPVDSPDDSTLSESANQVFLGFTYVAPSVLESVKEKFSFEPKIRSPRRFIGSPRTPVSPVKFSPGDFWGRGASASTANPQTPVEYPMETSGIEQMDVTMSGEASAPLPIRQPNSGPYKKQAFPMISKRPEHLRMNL

[4] = biological target: Casein kinase II (Homo sapiens) (UniProt P67870+P68400+P19784); test: Percentage CK2 activity remaining in the presence of 0.01uM inhibitor; format: protein-complex assay
[5] = biological target: Serine/threonine-protein kinase pim-1 (Homo sapiens, UniProt P11309); test: Percentage PIM1 activity remaining in the presence of 0.01uM inhibitor
Chain of Serine/threonine-protein kinase pim-1 (P11309 whole entry, looked up): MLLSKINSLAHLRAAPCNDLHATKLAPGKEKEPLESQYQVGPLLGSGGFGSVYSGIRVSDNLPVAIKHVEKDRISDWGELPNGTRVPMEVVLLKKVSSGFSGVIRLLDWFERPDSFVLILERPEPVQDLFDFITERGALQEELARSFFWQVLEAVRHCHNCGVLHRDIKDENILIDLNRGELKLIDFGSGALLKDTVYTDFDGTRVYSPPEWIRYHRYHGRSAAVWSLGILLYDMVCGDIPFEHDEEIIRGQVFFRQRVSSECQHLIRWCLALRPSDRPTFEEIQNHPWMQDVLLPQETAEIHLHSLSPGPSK

[6] = biological target: Mitogen-activated protein kinase 14 (Homo sapiens, UniProt Q16539); test: Percentage p38alpha activity remaining in the presence of 0.01uM inhibitor
Chain of Mitogen-activated protein kinase 14 (Q16539 whole entry): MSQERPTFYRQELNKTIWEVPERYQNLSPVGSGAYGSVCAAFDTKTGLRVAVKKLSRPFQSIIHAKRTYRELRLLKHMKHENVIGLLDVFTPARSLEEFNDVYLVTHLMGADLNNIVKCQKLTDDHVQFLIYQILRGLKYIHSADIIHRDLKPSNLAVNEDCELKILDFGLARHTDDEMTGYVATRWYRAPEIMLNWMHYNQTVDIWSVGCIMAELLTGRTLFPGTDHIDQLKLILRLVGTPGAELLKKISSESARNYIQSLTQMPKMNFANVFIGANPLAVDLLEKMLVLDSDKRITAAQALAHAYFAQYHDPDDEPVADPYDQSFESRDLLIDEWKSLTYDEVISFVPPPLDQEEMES

[7] = biological target: Homeodomain-interacting protein kinase 3 (Homo sapiens) (UniProt Q9H422); test: Percentage HIPK3 activity remaining in the presence of 0.01uM inhibitor
[8] = biological target: Mitogen-activated protein kinase 10 (Homo sapiens) (UniProt P53779); test: Percentage JNK3 activity remaining in the presence of 0.01uM inhibitor
Chain of Mitogen-activated protein kinase 10 (Homo sapiens) (P53779 whole entry): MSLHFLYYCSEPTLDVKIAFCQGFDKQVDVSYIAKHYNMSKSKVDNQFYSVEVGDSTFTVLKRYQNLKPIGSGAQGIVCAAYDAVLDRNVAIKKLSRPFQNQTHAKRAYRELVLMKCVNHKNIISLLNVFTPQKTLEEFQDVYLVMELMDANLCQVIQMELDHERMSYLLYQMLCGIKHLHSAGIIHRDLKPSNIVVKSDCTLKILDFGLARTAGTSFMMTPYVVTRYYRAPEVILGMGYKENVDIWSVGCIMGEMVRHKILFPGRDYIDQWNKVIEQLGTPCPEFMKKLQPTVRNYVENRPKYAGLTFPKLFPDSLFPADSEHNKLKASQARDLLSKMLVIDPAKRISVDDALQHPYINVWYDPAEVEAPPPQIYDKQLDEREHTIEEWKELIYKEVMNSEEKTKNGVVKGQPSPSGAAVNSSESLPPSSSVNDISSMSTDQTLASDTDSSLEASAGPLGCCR

[9] = biological target: Serine/threonine-protein kinase PAK 6 (Homo sapiens) (UniProt Q9NQU5); test: Percentage PAK6 activity remaining in the presence of 0.01uM inhibitor
[10] = biological target: Rho-associated protein kinase 2 (Homo sapiens) (UniProt O75116); test: Percentage ROCK2 activity remaining in the presence of 0.01uM inhibitor
Chain of Rho-associated protein kinase 2 (Homo sapiens) (O75116 whole entry, looked up): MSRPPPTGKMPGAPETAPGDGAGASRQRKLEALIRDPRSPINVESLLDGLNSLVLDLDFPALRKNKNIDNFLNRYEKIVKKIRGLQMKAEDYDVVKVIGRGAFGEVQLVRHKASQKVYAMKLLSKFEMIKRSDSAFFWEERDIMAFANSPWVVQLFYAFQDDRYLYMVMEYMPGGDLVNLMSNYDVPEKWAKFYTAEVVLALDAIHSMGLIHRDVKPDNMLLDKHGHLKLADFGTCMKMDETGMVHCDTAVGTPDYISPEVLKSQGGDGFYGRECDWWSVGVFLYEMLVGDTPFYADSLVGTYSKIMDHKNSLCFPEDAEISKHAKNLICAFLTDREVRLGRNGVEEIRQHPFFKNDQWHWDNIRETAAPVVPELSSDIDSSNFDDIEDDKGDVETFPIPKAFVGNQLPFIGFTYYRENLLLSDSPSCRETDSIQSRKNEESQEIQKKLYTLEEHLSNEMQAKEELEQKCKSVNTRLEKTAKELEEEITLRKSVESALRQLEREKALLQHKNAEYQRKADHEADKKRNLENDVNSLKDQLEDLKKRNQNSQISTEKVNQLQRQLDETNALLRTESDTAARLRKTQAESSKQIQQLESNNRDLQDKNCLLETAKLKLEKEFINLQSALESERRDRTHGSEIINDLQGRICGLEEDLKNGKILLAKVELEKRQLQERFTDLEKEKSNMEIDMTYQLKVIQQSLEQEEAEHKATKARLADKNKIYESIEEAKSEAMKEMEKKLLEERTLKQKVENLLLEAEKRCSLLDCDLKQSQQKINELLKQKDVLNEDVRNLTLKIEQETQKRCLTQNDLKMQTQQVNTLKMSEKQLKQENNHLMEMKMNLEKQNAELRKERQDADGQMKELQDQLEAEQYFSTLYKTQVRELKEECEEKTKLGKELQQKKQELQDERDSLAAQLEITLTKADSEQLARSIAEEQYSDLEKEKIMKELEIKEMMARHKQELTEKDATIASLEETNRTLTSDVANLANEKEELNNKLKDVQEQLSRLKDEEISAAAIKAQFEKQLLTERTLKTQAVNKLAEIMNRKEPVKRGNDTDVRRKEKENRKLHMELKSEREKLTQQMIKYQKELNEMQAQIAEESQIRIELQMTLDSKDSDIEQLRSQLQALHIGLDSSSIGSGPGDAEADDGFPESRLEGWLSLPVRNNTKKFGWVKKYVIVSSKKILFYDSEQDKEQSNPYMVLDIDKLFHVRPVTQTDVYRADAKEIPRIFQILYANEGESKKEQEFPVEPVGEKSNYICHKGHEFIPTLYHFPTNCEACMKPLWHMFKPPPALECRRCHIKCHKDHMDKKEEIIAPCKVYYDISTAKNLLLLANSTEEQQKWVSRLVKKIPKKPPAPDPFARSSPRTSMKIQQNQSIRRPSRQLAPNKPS

[11] = biological target: T3, Dual specificity tyrosine-phosphorylation-regulated kinase 3 (Homo sapiens) (UniProt O43781); test: Percentage DYRK3 activity remaining in the presence of 0.01uM inhibitor
T3 sequence (whole entry): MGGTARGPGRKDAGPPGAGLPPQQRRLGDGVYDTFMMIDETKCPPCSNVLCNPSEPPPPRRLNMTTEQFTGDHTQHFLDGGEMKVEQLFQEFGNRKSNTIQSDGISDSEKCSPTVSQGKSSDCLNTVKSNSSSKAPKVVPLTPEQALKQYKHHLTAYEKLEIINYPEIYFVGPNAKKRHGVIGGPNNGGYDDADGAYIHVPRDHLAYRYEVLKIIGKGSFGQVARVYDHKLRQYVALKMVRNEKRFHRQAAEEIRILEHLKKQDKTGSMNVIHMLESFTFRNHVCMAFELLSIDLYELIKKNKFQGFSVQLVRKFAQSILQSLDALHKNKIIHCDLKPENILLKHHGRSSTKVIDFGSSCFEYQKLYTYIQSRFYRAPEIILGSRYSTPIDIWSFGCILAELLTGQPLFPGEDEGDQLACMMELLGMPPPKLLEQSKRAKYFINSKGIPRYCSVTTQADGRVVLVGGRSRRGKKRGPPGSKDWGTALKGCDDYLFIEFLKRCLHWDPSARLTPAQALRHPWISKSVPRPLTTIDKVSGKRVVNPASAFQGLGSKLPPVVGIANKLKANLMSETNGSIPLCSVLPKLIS

[12] = biological target: Serine/threonine-protein kinase PAK 4 (Homo sapiens, UniProt O96013); test: Percentage PAK4 activity remaining in the presence of 0.01uM inhibitor
Chain of Serine/threonine-protein kinase PAK 4 (O96013 whole entry, looked up): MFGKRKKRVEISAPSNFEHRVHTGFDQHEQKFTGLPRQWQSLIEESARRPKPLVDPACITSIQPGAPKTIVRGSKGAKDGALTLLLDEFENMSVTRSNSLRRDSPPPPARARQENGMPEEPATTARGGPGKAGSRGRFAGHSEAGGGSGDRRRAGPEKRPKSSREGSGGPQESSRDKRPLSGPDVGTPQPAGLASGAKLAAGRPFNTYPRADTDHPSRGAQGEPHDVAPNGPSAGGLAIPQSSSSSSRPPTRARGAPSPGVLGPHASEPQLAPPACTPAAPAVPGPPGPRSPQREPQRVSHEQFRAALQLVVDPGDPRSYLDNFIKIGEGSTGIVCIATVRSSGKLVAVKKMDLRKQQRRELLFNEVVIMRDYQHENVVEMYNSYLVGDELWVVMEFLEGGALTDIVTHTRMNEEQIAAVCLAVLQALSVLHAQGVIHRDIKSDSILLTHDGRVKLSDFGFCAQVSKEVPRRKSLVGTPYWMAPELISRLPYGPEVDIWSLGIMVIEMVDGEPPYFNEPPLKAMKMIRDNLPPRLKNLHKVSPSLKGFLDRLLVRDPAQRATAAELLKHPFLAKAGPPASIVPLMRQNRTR

[13] = biological target: MAP kinase-activated protein kinase 3 (Homo sapiens) (UniProt Q16644); test: Percentage MAPKAPK3 activity remaining in the presence of 0.01uM inhibitor
Chain of MAP kinase-activated protein kinase 3 (Homo sapiens) (Q16644 whole entry, looked up): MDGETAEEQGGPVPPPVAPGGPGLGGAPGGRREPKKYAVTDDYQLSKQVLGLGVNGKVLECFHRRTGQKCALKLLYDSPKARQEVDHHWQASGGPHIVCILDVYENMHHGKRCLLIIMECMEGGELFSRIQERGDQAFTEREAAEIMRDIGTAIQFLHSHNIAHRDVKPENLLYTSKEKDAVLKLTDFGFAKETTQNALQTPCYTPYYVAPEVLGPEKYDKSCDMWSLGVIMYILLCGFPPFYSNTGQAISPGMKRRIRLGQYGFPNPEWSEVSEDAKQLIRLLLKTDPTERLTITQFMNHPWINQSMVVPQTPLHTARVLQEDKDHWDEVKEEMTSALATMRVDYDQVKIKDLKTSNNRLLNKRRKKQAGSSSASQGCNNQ

[14] = biological target: Protein kinase C alpha type (Homo sapiens) (UniProt P17252); test: Percentage PKCalpha activity remaining in the presence of 0.01uM inhibitor
[15] = biological target: T4, cAMP-dependent protein kinase catalytic subunit alpha (Homo sapiens, UniProt P17612); test: Percentage PKA activity remaining in the presence of 0.01uM inhibitor
[16] = biological target: T5, Serine/threonine-protein kinase Chk1 (Homo sapiens) (UniProt O14757); test: Percentage CHK1 activity remaining in the presence of 0.01uM inhibitor
T5 sequence (whole entry): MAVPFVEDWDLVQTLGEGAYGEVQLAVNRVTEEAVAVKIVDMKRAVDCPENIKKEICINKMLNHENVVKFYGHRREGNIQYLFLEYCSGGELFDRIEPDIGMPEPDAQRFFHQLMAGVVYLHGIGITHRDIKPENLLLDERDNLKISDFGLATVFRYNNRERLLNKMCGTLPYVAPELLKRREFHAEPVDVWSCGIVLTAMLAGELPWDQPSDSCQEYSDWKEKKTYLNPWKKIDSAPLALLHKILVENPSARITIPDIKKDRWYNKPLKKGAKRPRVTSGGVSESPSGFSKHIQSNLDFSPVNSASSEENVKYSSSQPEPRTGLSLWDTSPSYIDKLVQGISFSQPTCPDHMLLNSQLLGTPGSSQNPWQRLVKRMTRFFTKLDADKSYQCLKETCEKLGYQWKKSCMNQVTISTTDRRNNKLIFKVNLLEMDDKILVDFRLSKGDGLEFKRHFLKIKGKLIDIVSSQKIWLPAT

[17] = biological target: Mitogen-activated protein kinase 3 (Homo sapiens) (UniProt P27361); test: Percentage ERK1 activity remaining in the presence of 25uM inhibitor
[18] = biological target: Proto-oncogene tyrosine-protein kinase Src (Gallus gallus) (UniProt P00523); test: Percentage Src activity remaining in the presence of 25uM inhibitor
[19] = biological target: T2, Ribosomal protein S6 kinase beta-1; test: Percentage S6K1 activity remaining in the presence of 25uM inhibitor
[20] = biological target: Mitogen-activated protein kinase 1 (Homo sapiens) (UniProt P28482); test: Percentage ERK2 activity remaining in the presence of 25uM inhibitor
[21] = biological target: Proto-oncogene tyrosine-protein kinase LCK (Mus musculus) (UniProt P06240); test: Percentage Lck activity remaining in the presence of 25uM inhibitor
[22] = biological target: T4, cAMP-dependent protein kinase catalytic subunit alpha; test: Percentage PKA activity remaining in the presence of […]uM inhibitor; details: at 25 µM
[23] = biological target: Myosin light chain kinase, smooth muscle (Homo sapiens, UniProt Q15746); test: Percentage SmMLCK activity remaining in the presence of 0.01uM inhibitor

Compound	Activity [1] [%]	Activity [2] [%]	Activity [3] [%]	Activity [4] [%]	Activity [5] [%]	Activity [6] [%]	Activity [7] [%]	Activity [8] [%]	Activity [9] [%]	Activity [12] [%]	Activity [13] [%]	Activity [14] [%]	Activity [16] [%]	Activity [17] [%]	Activity [18] [%]	Activity [20] [%]	Activity [22] [%]	Activity [10] [%]	Activity [11] [%]	Activity [23] [%]	further results
Cc1n[nH]c2ccc(-c3cncc(OC[C@@H](N)Cc4c[nH]c5ccccc45)c3)cc12	89	78	88	96	57	131	90	81	87	99	91	73	100	–	–	–	–	–	–	–	Activity ([10]; filed as antagonist): 48%; Activity ([11]; filed as antagonist): 41%; Activity ([15]; filed as antagonist): 26%
COc1cc(OC)c(/C=C2/C(=O)Nc3ccccc32)c(OC)c1	–	–	–	–	–	–	–	–	–	–	–	–	–	91	70	93	82	–	–	–	Activity [19]: 84%; Activity ([21]; filed as antagonist): 49%
NCCNS(=O)(=O)c1ccc(Cl)c2ccncc12	–	–	–	–	–	–	–	–	–	–	–	–	–	102	92	100	65	–	–	–	Activity ([19]; filed as antagonist): 49%; Activity [21]: 83%
CN[C@@H]1C[C@H]2O[C@@](C)([C@@H]1OC)n1c3ccccc3c3c4c(c5c6ccccc6n2c5c31)C(=O)N[C@H]4O (stereo in doubt)	86	83	96	92	52	105	116	107	–	–	107	–	–	–	–	–	–	86	84	83	Activity ([9]; filed as antagonist): 35%; Activity ([12]; filed as antagonist): 33%; Activity ([14]; filed as antagonist): 6%; Activity [15]: 63%; Activity ([16]; filed as antagonist): 12%
O=C(NCCCNc1nc(Nc2cccc(NC(=O)N3CCCC3)c2)ncc1I)c1cccs1	86	87	100	93	103	86	95	93	92	91	103	105	84	–	–	–	–	90	85	110	Activity [15]: 102%

From ChEMBL document CHEMBL1150976, “The selectivity of protein kinase inhibitors: a further update” (Biochem J, 2007)
